Laboratory results published in ChEMBL document CHEMBL3991601, “The target landscape of clinical kinase drugs” (Science, 2017).
Calls of active or inactive are those of the source.

What was measured:
[1] = molecular target: T1, Serine/threonine-protein kinase Chk1 (Homo sapiens, UniProt O14757)
T1 sequence (O14757 whole entry): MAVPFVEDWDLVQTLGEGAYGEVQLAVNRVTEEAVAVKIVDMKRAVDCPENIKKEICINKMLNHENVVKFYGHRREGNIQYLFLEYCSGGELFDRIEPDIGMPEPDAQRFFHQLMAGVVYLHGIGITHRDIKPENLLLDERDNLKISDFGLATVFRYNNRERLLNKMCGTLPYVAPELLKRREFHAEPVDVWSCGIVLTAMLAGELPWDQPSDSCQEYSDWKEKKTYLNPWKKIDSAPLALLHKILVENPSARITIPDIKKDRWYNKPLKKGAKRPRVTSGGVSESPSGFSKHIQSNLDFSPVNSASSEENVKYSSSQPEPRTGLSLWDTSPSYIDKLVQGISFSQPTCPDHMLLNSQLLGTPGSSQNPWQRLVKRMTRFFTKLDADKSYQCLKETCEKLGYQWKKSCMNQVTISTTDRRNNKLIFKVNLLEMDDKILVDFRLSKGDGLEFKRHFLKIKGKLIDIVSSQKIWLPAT

[2] = molecular target: T2, Cytochrome c1, heme protein, mitochondrial (Homo sapiens, UniProt P08574)
T2 sequence (P08574 whole entry): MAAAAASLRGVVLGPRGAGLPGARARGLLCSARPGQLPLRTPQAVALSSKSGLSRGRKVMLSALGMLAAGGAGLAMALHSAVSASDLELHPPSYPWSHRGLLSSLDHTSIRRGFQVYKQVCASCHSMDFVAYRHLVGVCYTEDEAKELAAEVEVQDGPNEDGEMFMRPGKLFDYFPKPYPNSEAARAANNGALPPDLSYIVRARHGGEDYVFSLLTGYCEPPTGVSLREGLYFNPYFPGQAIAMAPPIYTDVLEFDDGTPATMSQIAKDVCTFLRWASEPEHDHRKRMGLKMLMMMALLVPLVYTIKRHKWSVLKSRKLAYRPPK

[3] = molecular target: T3, Ephrin type-A receptor 1 (Homo sapiens, UniProt P21709)
T3 sequence (P21709 whole entry): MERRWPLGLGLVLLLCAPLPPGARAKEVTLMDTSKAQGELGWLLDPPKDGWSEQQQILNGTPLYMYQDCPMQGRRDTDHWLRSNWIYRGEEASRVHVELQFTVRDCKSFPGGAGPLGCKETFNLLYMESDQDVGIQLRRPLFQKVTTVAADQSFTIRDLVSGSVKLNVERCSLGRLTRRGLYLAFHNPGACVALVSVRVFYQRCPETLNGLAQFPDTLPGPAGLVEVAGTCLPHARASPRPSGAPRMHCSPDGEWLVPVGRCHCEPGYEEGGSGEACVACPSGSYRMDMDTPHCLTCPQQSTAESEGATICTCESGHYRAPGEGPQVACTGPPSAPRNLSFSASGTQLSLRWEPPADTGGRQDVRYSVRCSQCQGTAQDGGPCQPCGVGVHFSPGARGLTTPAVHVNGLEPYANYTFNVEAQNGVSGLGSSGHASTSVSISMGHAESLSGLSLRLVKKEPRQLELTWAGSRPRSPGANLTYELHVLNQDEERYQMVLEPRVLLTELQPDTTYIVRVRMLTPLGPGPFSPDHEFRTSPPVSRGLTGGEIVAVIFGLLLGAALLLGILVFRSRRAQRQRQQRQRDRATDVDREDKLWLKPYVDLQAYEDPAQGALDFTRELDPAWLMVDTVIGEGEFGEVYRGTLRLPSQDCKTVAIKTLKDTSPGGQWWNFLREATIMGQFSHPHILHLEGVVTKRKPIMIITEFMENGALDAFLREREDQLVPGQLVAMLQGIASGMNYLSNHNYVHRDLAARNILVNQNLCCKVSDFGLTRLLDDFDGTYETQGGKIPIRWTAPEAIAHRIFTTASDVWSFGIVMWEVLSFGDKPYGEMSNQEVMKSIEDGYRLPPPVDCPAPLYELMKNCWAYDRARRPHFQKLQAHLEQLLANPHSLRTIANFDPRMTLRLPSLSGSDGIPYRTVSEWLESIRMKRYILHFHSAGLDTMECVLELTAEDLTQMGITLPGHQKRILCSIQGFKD

[4] = molecular target: Mitogen-activated protein kinase 1 (Homo sapiens, UniProt P28482)
[5] = molecular target: NADH dehydrogenase [ubiquinone] 1 alpha subcomplex subunit 13 (Homo sapiens, UniProt Q9P0J0)
[6] = molecular target: T4, Tyrosine--tRNA ligase, cytoplasmic (Homo sapiens, UniProt P54577)
T4 sequence (P54577 whole entry): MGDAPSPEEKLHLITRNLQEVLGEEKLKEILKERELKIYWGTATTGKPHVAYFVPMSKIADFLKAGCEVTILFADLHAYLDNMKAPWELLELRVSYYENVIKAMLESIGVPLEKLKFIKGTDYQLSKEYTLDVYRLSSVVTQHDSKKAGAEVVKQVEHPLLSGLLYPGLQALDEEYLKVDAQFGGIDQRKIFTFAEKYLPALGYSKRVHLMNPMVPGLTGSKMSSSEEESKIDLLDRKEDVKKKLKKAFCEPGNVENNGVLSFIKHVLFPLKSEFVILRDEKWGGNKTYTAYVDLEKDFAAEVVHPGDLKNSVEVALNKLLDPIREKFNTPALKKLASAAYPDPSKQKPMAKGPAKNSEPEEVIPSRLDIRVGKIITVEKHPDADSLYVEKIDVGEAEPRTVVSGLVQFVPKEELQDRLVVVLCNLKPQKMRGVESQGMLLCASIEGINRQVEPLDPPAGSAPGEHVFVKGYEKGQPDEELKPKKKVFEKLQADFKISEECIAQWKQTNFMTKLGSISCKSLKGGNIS
Also: in the data inactive means no Kd found up to 30 µM.

Mitogen-activated protein kinase 1, sequence (P28482 whole entry): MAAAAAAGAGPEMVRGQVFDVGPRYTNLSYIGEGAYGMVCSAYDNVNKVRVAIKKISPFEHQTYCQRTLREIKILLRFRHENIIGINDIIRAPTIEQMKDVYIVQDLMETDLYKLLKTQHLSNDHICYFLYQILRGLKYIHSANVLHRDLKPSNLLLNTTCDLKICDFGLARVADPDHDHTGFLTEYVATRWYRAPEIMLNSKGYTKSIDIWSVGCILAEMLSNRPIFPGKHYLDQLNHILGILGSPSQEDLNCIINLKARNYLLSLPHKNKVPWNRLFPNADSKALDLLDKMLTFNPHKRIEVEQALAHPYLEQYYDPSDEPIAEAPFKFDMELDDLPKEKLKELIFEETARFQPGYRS
NADH dehydrogenase [ubiquinone] 1 alpha subcomplex subunit 13, sequence (Q9P0J0 whole entry, one chain of several): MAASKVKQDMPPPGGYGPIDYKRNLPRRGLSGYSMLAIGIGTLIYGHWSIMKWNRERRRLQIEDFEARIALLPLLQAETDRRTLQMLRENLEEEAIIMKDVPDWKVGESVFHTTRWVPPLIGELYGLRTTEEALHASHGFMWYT

| Structure (SMILES) | Kd [1] | Kd [2] | Kd [3] | Kd [4] | Kd [5] | Kd [6] |
| --- | --- | --- | --- | --- | --- | --- |
| C[C@H]1CNCCCN1S(=O)(=O)c1cccc2cncc(F)c12 | > 30 µM (inactive) | > 30 µM (inactive) | > 30 µM (inactive) | > 30 µM (inactive) | > 30 µM (inactive) |  |
| COc1cc(Nc2ncc3c(n2)-c2ccc(Cl)cc2C(c2c(F)cccc2OC)=NC3)ccc1C(=O)O [ALISERTIB] |  | > 30 µM (inactive) | > 30 µM (inactive) |  | 3.92 µM | > 30 µM (inactive) |
| Cc1nc(NC(=O)N2CCC[C@H]2C(N)=O)sc1-c1ccnc(C(C)(C)C(F)(F)F)c1 [ALPELISIB] | > 30 µM (inactive) | > 30 µM (inactive) | > 30 µM (inactive) | > 30 µM (inactive) |  | > 30 µM (inactive) |
| O=C(Nc1c[nH]nc1-c1nc2cc(CN3CCOCC3)ccc2[nH]1)NC1CC1 [AT-9283] | 0.084 µM (active) | > 30 µM (inactive) |  | > 30 µM (inactive) | > 30 µM (inactive) | > 30 µM (inactive) |
| CNC(=O)c1ccccc1Sc1ccc2c(/C=C/c3ccccn3)n[nH]c2c1 [AXITINIB] |  | > 30 µM (inactive) |  |  | > 30 µM (inactive) | > 30 µM (inactive) |
| NC(=O)Nc1cc(-c2cccc(F)c2)sc1C(=O)N[C@H]1CCCNC1 [AZD-7762] |  |  |  | > 30 µM (inactive) | > 30 µM (inactive) | > 30 µM (inactive) |
| COc1c(OCCCN2CCOCC2)ccc2c1N=C(NC(=O)c1cnc(N)nc1)N1CCN=C21 [COPANLISIB] | > 30 µM (inactive) | > 30 µM (inactive) |  | > 30 µM (inactive) | > 30 µM (inactive) | > 30 µM (inactive) |
| CC(C)(C)c1nc(-c2cccc(NS(=O)(=O)c3c(F)cccc3F)c2F)c(-c2ccnc(N)n2)s1 [DABRAFENIB] |  | > 30 µM (inactive) | 0.705 µM | > 30 µM (inactive) | > 30 µM (inactive) | > 30 µM (inactive) |
| Cn1cc(C2=C(c3cn(C4CCN(Cc5ccccn5)CC4)c4ccccc34)C(=O)NC2=O)c2ccccc21 [ENZASTAURIN] |  | > 30 µM (inactive) |  |  | > 30 µM (inactive) | > 30 µM (inactive) |
| Cc1cccc(-c2nn3c(c2-c2ccnc4ccc(C(N)=O)cc24)CCC3)n1 [GALUNISERTIB] | > 30 µM (inactive) | > 30 µM (inactive) |  | > 30 µM (inactive) | > 30 µM (inactive) | > 30 µM (inactive) |
| O=C(Nc1cc(C(F)(F)F)cc(C(F)(F)F)c1)c1cc(Cl)ccc1O [IMD-0354] |  | > 30 µM (inactive) | > 30 µM (inactive) |  | > 30 µM (inactive) | > 30 µM (inactive) |
| COc1ncc(-c2ccc3nccc(-c4ccnnc4)c3c2)cc1NS(=O)(=O)c1ccc(F)cc1F [OMIPALISIB] | > 30 µM (inactive) | > 30 µM (inactive) |  | > 30 µM (inactive) | > 30 µM (inactive) | > 30 µM (inactive) |
| Cc1[nH]c(/C=C2\C(=O)Nc3ccccc32)c(C)c1CCC(=O)O [ORANTINIB] |  | > 30 µM (inactive) | > 30 µM (inactive) |  | > 30 µM (inactive) | > 30 µM (inactive) |
| Cc1cnc(NC(=O)Nc2cc(Br)c(C)cc2OC[C@@H]2CNCCO2)cn1 [RABUSERTIB] |  | > 30 µM (inactive) | > 30 µM (inactive) | > 30 µM (inactive) | > 30 µM (inactive) | > 30 µM (inactive) |
| CNC(=O)c1cc(Oc2ccc(NC(=O)Nc3cc(C(C)(C)C)nn3-c3ccc4ncccc4c3)c(F)c2)ccn1 [REBASTINIB] | > 30 µM (inactive) | > 30 µM (inactive) |  | > 30 µM (inactive) | > 30 µM (inactive) | > 30 µM (inactive) |
| N#CC[C@H](C1CCCC1)n1cc(-c2ncnc3[nH]ccc23)cn1 [RUXOLITINIB] |  | > 30 µM (inactive) |  |  | > 30 µM (inactive) | > 30 µM (inactive) |
| CN1CCN(CCOc2cc(OC3CCOCC3)c3c(Nc4c(Cl)ccc5c4OCO5)ncnc3c2)CC1 [SARACATINIB] | > 30 µM (inactive) | > 30 µM (inactive) |  | > 30 µM (inactive) | > 30 µM (inactive) | > 30 µM (inactive) |
| CO[C@H]1C[C@@H]2CC[C@@H](C)[C@@](O)(O2)C(=O)C(=O)N2CCCC[C@H]2C(=O)O[C@H]([C@H](C)C[C@@H]2CC[C@@H](O)[C@H](OC)C2)CC(=O)[C@H](C)/C=C(\C)[C@@H](O)[C@@H](OC)C(=O)[C@H](C)C[C@H](C)/C=C/C=C/C=C/1C [SIROLIMUS] | > 30 µM (inactive) | > 30 µM (inactive) | > 30 µM (inactive) | > 30 µM (inactive) |  | > 30 µM (inactive) |
| O=C1NC(=O)[C@@H](c2cn3c4c(cccc24)CCC3)[C@@H]1c1c[nH]c2ccccc12 [TIVANTINIB] | > 30 µM (inactive) | > 30 µM (inactive) |  | > 30 µM (inactive) | > 30 µM (inactive) | > 30 µM (inactive) |
| Cn1ncc(Cl)c1-c1cc(C(=O)N[C@H](CN)Cc2ccc(F)c(F)c2)oc1Cl [UPROSERTIB] | > 30 µM (inactive) | > 30 µM (inactive) | > 30 µM (inactive) | > 30 µM (inactive) |  | > 30 µM (inactive) |

More lines, now with the values ahead:

| Kd [1] | Kd [2] | Kd [3] | Kd [4] | Kd [5] | Kd [6] | Structure (SMILES) |
| --- | --- | --- | --- | --- | --- | --- |
| > 30 µM (inactive) | > 30 µM (inactive) |  | > 30 µM (inactive) |  | > 30 µM (inactive) | Cc1csc(-c2nnc(Nc3ccc(Oc4ncccc4-c4ccnc(N)n4)cc3)c3ccccc23)c1 [AMG-900] |
| > 30 µM (inactive) | > 30 µM (inactive) |  | > 30 µM (inactive) | > 30 µM (inactive) | > 30 µM (inactive) | Cc1cc(C(=O)NOCCO)c(Nc2ccc(I)cc2F)n(C)c1=O [AZD-8330] |
|  | > 30 µM (inactive) |  |  | > 30 µM (inactive) | > 30 µM (inactive) | C[C@@H](Oc1cc(-n2cnc3ccc(CN4CCN(C)CC4)cc32)sc1C(N)=O)c1ccccc1C(F)(F)F [GSK-461364] |
|  | > 30 µM (inactive) | > 30 µM (inactive) |  | > 30 µM (inactive) | > 30 µM (inactive) | NC(=O)c1c(OCc2c(F)cc(Br)cc2F)nsc1NC(=O)NCCCCN1CCCC1 [OSI-632] |
|  | > 30 µM (inactive) | > 30 µM (inactive) |  |  | > 30 µM (inactive) | CC(=O)NCC(=O)N1[C@@H]2CC[C@H]1c1ccc(Nc3ncc(C(F)(F)F)c(NC4CCC4)n3)cc12 [PF-03814735] |
|  | > 30 µM (inactive) |  |  | > 30 µM (inactive) | > 30 µM (inactive) | O=C(NOCCO)c1cc(CN2OCCCC2=O)c(F)c(F)c1Nc1ccc(I)cc1F [RO-4987655] |
|  | > 30 µM (inactive) | > 30 µM (inactive) | > 30 µM (inactive) | > 30 µM (inactive) | > 30 µM (inactive) | Cn1cc(-c2cnn3c(N)c(Br)c([C@@H]4CCCNC4)nc23)cn1 [SCH-900776] |
